Test results as given in paper PMC11287240 (RSC Advances, 2024).

Assays:
[1] = target: EeAChE (Electrophorus electricus acetylcholinesterase) (Electrophorus electricus, UniProt O42275); assay: AChE inhibition assay; format: biochemical, electric eel
hBACE 1 = hBACE 1 (Homo sapiens, UniProt P56817); assay: BACE 1 FRET inhibition assay; format: biochemical; details: human BACE 1
[2] = hBACE 1 IC50 (μM) ± SD, mean ± SD, n = 3, FRET assay

Chain of EeAChE (Electrophorus electricus acetylcholinesterase) (O42275 24-633): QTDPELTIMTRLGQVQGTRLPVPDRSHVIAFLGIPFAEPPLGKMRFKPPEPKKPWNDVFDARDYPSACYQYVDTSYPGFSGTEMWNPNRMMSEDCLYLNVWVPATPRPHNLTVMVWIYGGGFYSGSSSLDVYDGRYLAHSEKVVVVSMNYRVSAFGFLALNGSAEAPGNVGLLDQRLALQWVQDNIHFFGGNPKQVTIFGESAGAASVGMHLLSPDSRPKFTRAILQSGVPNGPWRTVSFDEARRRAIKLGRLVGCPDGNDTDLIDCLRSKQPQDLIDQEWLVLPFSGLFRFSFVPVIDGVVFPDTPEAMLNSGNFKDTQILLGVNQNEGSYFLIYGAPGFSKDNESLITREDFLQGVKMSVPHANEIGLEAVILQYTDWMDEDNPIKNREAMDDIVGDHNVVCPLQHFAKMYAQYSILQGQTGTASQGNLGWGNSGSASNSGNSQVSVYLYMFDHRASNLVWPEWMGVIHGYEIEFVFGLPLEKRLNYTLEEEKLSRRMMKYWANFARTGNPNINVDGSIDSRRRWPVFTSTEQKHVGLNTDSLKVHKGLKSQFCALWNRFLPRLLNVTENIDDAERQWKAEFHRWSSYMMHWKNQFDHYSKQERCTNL
Chain of hBACE 1 (P56817 46-501): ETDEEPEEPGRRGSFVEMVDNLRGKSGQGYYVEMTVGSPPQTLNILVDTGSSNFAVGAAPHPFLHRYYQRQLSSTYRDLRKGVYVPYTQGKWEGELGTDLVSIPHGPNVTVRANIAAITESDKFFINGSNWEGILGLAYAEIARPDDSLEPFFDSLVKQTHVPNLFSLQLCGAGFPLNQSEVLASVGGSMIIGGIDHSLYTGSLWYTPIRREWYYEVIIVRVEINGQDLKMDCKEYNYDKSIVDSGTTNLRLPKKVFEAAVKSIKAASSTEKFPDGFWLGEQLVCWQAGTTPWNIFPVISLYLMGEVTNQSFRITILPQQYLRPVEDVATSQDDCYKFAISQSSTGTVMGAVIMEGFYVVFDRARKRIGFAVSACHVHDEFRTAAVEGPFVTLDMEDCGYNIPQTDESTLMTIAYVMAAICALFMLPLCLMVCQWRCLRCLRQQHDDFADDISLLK

| Compound | IC50 [1] [µM] | IC50 (hBACE 1; [2]) [µM] | IC50 (hBACE 1; hBACE 1 PIC50 (μM)) [µM] |
| --- | --- | --- | --- |
| [H]/N=C(/N)NN=C(/C=C/c1ccc(OCc2ccccc2)cc1)c1cn(Cc2ccc(C)cc2)c2ccccc12 [Compound 3e, (Z)-2-((E)-3-(4-(Benzyloxy)phenyl)-1-(1-(4-methylbenzyl)-1H-indol-3-yl)allylidene)hydrazine-1-carboximidamide] | 144 ± 1.77 | 107 ± 2.55 | 107 |
| [H]/N=C(/N)NN=C(/C=C/c1ccc(C(C)C)cc1)c1cn(Cc2cc(F)ccc2F)c2ccccc12 [Compound 3f, (Z)-2-((E)-1-(1-(2,5-Difluorobenzyl)-1H-indol-3-yl)-3-(4-isopropylphenyl)allylidene)hydrazine-1-carboximidamide] | 167 ± 2.12 | 82.1 ± 2.74 | 81.3 |
| [H]/N=C(/N)NN=C(/C=C/c1ccc(C(C)(C)C)cc1)c1cn(Cc2ccc(Br)cc2)c2ccccc12 [Compound 3g, (Z)-2-((E)-1-(1-(4-Bromobenzyl)-1H-indol-3-yl)-3-(4-(tert-butyl)phenyl)allylidene)hydrazine-1-carboximidamide] | 156 ± 2.62 | 178.2 ± 0.92 | 178 |
| [H]/N=C(/N)NN=C(/C=C/c1ccc(C(C)(C)C)cc1)c1cn(Cc2ccc(C(C)(C)C)cc2)c2ccccc12 [Compound 3h, (Z)-2-((E)-1-(1-(4-(tert-Butyl)benzyl)-1H-indol-3-yl)-3-(4-(tert-butyl)phenyl)allylidene)hydrazine-1-carboximidamide] | 55.7 ± 3.17 | 179.2 ± 0.78 | 178 |
| [H]/N=C(/N)NN=C(/C=C/c1ccc(OCc2ccccc2)cc1)c1cn(Cc2cccc(OCc3ccccc3)c2)c2ccccc12 [Compound 3i, (Z)-2-((E)-1-(1-(3-(Benzyloxy)benzyl)-1H-indol-3-yl)-3-(4-(benzyloxy)phenyl)allylidene)hydrazine-1-carboximidamide] | 26.99 ± 0.13 | 189 ± 1.91 | 191 |
| [H]/N=C(/N)NN=C(/C=C/c1ccc(C(F)(F)F)cc1)c1cn(Cc2ccc(CCCC)cc2)c2ccccc12 [Compound 3j, (Z)-2-((E)-1-(1-(4-Butylbenzyl)-1H-indol-3-yl)-3-(4-(trifluoromethyl)phenyl)allylidene)hydrazine-1-carboximidamide] | 13.4 ± 0.49 | 182.4 ± 1.41 | 182 |
| [H]/N=C(/N)NN=C(/C=C/c1ccc(C(C)(C)C)cc1)c1cn(Cc2ccc(C(F)(F)F)cc2)c2ccccc12 [Compound 3k, (Z)-2-((E)-3-(4-(tert-Butyl)phenyl)-1-(1-(4-(trifluoromethyl)benzyl)-1H-indol-3-yl)allylidene)hydrazine-1-carboximidamide] | 207 ± 7.64 | 139 ± 1.98 | 138 |
| [H]/N=C(/N)NN=C(/C=C/c1cc(OC)ccc1OC)c1cn(Cc2ccc(CCCC)cc2)c2ccccc12 [Compound 3l, (Z)-2-((E)-1-(1-(4-Butylbenzyl)-1H-indol-3-yl)-3-(2,5-dimethoxyphenyl)allylidene)hydrazine-1-carboximidamide] | 58.4 ± 0.91 | 196 ± 3.04 | 195 |
